Laboratory results reported in US9028874B2, “Antioxidant nanosphere comprising [1,2]-dithiolane moieties” (Cedars-Sinai Medical Center, priority 2008, dated 2015).

Columns and labels:
[1] = Nanosphere formation by spontaneous emulsification; hydrodynamic size and polydispersity by dynamic light scattering; type: physicochemical; settings: 25 mg/5 mL acetone into 10 mL 0.25% w/v Pluronic F-68 in water
Method: Nanospheres were prepared according to the method using spontaneous emulsification with slight modification. Briefly, 25 mg of the compounds were dissolved in acetone (5 mL). The organic solution was poured under moderate stirring on a magnetic plate into an aqueous phase prepared by dissolving 25 mg of Pluronic F68 in 10 mL bidistilled water (0.25% w/v). Following 15 min of magnetic stirring, the acetone was removed under reduced pressure at room temperature. The nanospheres were filtered through 0.45 μm hydrophilic syringe filter and stored at 4° C. The hydrodynamic size measurement and size distribution of the nanospheres was performed by the dynamic light scattering (DLS) using a Coulter N4-Plus Submicron Particle Sizer (Coulter Corporation, Miami, Fla.). The nanospheres were purified by centrifuging three times at 20,000×g for 30 min at 25° C. and resuspending each time in the same volume of deionized water. […] The size was assessed on three separate batches of the nanosphere formulation. The recovery yield was calculated as follows: RY (%)=(mass of the mALA-containing compounds recovered/mass of the mALA-containing compounds used in formulation)×100%. […] The solution was analyzed for the compounds by RP-HPLC. Separation was performed using 80% acetonitrile (0.1% trifluoroacetic acid, TFA) as mobile phase and the eluent was monitored using UV detector at 330 nm. […]

[2] = DPPH radical scavenging assay, Method A (dissolved DPPH); type: biochemical; settings: Method A: 50 μM DPPH dissolved in ethanol/water; violet to pale yellow
Method: Method A: 5 mL of 100 μM DPPH solution in ethanol was mixed with 5 mL of water, resulting in a final concentration of 50 μM for DPPH. Trolox and ascorbic acid were dissolved in 100 mM sodium phosphate buffer (pH 7.5, 2.5 mM). The concentration of α-tocopherol in nanospheres was adjusted to 2.5 mM. The predetermined amount of Trolox, ascorbic acid solution and nanospheres were added to the DPPH solution using Hamilton syringe carefully to the bottom of 20 mL glass bottle to minimize the premature mixing. After gentle mixing, pictures were taken using digital camera (50000 pxitex).
The antioxidant capability of the nanospheres was assessed by the scavenging activity of DPPH free radical. The DPPH radical scavenging assay is often used as a model for the measurement of lipid radial scavenging activity of antioxidant compounds. […] The DPPH radical scavenging assay is usually performed in a 50:50 mixture of water and organic solvents, commonly ethanol or dimethyl suloxide, in which the DPPH radical is completely dissolved. In this condition (Method A), the violet color of DPPH radical solution converted instantaneously to the pale yellow color, which is indicative of an instantaneous DPPH radical scavenging by the nanospheres (FIG. 6a, Method A).

[3] = DPPH radical scavenging assay, Method B (fine dispersed DPPH suspension); type: biochemical; settings: Method B: DPPH suspension in water
Method: Method B: 400 μL of 1.25 mM DPPH solution in ethanol was added to 9500 μL of water to give a fine dispersed DPPH suspension. Pictures were taken as described above.
In the method B (FIG. 6a), 400 μL of 1.25 mM DPPH solution in ethanol was added to 9500 μL of water to give a fine dispersed DPPH suspension with the particle size of 164±26 nm (polydispersity index 0.03).

Structure (SMILES)	formation of stable nanospheres [1]	DPPH radical scavenging (color change) [2]	DPPH radical scavenging (color change) [3]
O=C(CCCCC1CCSS1)OCCOCCOCCOCCOC(=O)CCCCC1CCSS1 (stereo not drawn) [Compound 4a, 2×Lipoic Acid/Tetraethylene Glycol]	failure		
O=C(CCCCC1CCSS1)OCCN1CCN(CCOC(=O)CCCCC2CCSS2)CC1 (stereo not drawn) [Compound 7a, 2×Lipoic acid/1,4-Bis(2-hydroxyethyl)-piperazine]	failure		
Cc1c(C)c2c(c(C)c1O)CCC(C)(C(=O)O)O2 (stereo not drawn) [Trolox]		complete and occurred instantaneously	much less color changes
O=C1O[C@H]([C@@H](O)CO)C(O)=C1O [ascorbic acid]		complete and occurred instantaneously	much less color changes
